Laboratory results as given in patent US20210386367A1, “DEVICES AND SYSTEMS FOR GASTROINTESTINAL MICROBIOME DETECTION AND MANIPULATION” (Progenity, Inc., priority 2018, published 2021).
Converted amounts (≈) assume the structure as drawn. “Also recorded” adds a separate entry of the source. Like-named read-outs stand apart in the source and are kept apart here.

Legend:
Escherichia coli = test: Broth microdilution MIC, 50 clinical isolates (incl. ESBL, one NDM-1); assay type: cell-based; conditions: for MIC50: read-out: MIC50
Experimental: Minimal inhibitory concentration (MIC) values were determined by broth microdilution or agar dilution in accordance with guidelines from the Clinical and Laboratory Standards Institute (CLSI; (1) “Methods for Dilution Antimicrobial Susceptibility Tests for Bacteria That Grow Aerobically; Approved Standard; 11th ed.” CLSI standard M07-A11, 2018; (2) “Performance Standards for Antimicrobial Susceptibility Testing; Twenty-Eighth Informational Supplement,” CLSI document M100-S28, 2018; and (3) “Methods for Antimicrobial Susceptibility Testing of Anaerobic Bacteria; Approved Standard—Eighth Edition,” CLSI document M11-A8, 2012).
Tested aerobically by broth microdilution: • Escherichia coli, n=50 • Klebsiella spp., n=50 • Pseudomonas aeruginosa, n=50 • Streptococcus spp., n=50 • Staphylococcus aureus, n=50 • Enterococcus faecalis, n=50 • Enterobacter aerogenes, n=50 • Proteus mirabilis, n=50
Broth microdilution testing of aerobic bacteria was conducted in cation-adjusted Mueller Hinton broth (MHBII). For testing streptococci, lysed horse blood (LHB) was added to MHBII broth at a final concentration of 3%. Where LHB was used, it was added after filtering.
Broth microdilution susceptibility testing in 96-well microplates was conducted in accordance with CLSI methods (1) and (2). Automated liquid handlers were used to conduct serial dilutions and liquid transfers, including the Multidrop 384 (Labsystems, Helsinki, Finland), Biomek 2000, and the Biomek FX (Beckman Coulter, Fullerton, Calif.). All wells in columns 2 through 12 of a standard 96-well microdilution plate (Costar 3795) were filled with 150 μL of the appropriate diluent. Then, 300 μL of the test agents were added to the wells of column 1 of the plates at 100× the highest final concentration to be tested. Serial two-fold dilutions were made across the rows through column 11 using the Biomek 2000. The wells of column 12 contained no drug and served as the growth control wells. This plate served as the “mother plate” from which MIC assay plates or “daughter plates” were made.
The daughter plates were loaded with 190 μL per well of the appropriate medium using the Multidrop 384. The daughter plates were created using the Biomek FX which transferred 2 μL of drug solution from each well of a mother plate to each corresponding well of the daughter plate in a single step. A standardized inoculum of each test organism was prepared per CLSI methods (1) to equal a 0.5 McFarland standard, followed by a dilution of 1:20 for aerobes and 1:10 for anaerobes. The plates were then inoculated with 10 μL of the diluted inoculum using the Biomek 2000 from low to high drug concentration, resulting in a final concentration of approximately 5×10^5 CFU/mL per well. An un-inoculated plate was incubated in parallel for each medium for the purpose of assessing solubility of the drug in the test media.
Inoculated plates were stacked 3 or 4 high, covered with a sterile lid on the top plate, placed into boxes with CO2 planchets (streptococci) or plastic bags (all other isolates). Plates were incubated at 35° C. for 16-24 hr in ambient air for aerobes or for 42-48 hr in the anaerobic environment of the Bactron II anaerobe chamber (Sheldon Manufacturing Co.; Cornelius, Oreg.). Following incubation, the microplates were removed from the incubator and viewed from the bottom using a plate viewer. The MIC values were read and recorded as the lowest concentration of drug that inhibited visible growth of the organism as per CLSI methods (1) and (2).

E. coli MMX 1312 = test: Time-kill assay; assay type: cell-based, Escherichia coli; conditions: for time-kill kinetics outcome (bactericidal = ≥3 log reduction in CFU per mL): 2×, 4×, 8× MIC, 2, 6, 24 hr
[1] = tested on: three isolates each of E. coli, Streptococcus spp. and Bacteroides spp.; test: Time-kill assay, overall summary; assay type: cell-based
Experimental: MIC values were determined by broth microdilution in accordance with guidelines from the Clinical and Laboratory Standards Institute (CLSI; (1) “Methods for Dilution Antimicrobial Susceptibility Tests for Bacteria That Grow Aerobically; Approved Standard; 11th ed.,” CLSI standard M07, 2018; (2) “Performance Standards for Antimicrobial Susceptibility Testing; 28th ed.,” CLSI supplement M100, 2018).
During the time-kill study, the test flasks were sampled at 2, 6, and 24 hr for determination of viable counts using the track dilution method as described above. Bacteroides was also sampled at 48 hr. All E. coli plates were incubated for 20-24 hr at 35° C., Streptococci for 20-24 hr at 35° C. in a CO2 incubator, and Bacteroides for approximately 48 hr at 35° C. in the anaerobe chamber. Colonies were counted manually, and the CFU/mL was determined from the average count of the duplicate plates, followed by the calculation of the log10 CFU/mL. The limit of detection for the assay was 50 CFU/mL.

[2] = tested on: E. coli (ATCC 25922, ATCC 35218, MMX 1312); test: Agar dilution MIC (spontaneous mutation study; strain in conditions); assay type: cell-based, Escherichia coli; conditions: Escherichia coli
[3] = read-out: Agar MIC, E. coli ATCC 25922
[4] = read-out: Agar MIC, E. coli ATCC 35218
[5] = read-out: Agar MIC, E. coli MMX 1312

Row | SMILES | % R (Escherichia coli) | % S (Escherichia coli) | Mode (Escherichia coli) | Cumulative percentage of isolates inhibited at MIC (Escherichia coli; 0.015 μg/mL) | Number of test isolates at MIC (Escherichia coli; 0.015 μg/mL) | Cumulative percentage of isolates inhibited at MIC (Escherichia coli; 0.03 μg/mL) | Number of test isolates at MIC (Escherichia coli; 0.03 μg/mL) | Cumulative percentage of isolates inhibited at MIC (Escherichia coli; 0.06 μg/mL) | Number of test isolates at MIC (Escherichia coli; 0.06 μg/mL) | MIC50 (Escherichia coli; Escherichia coli) | Cumulative percentage of isolates inhibited at MIC (Escherichia coli; […]) | Number of test isolates at MIC (Escherichia coli; […]) | time-kill kinetics outcome (bactericidal = ≥3 log reduction in CFU per mL) (E. coli MMX 1312) | overall time-kill outcome [1] | MIC [2, 3] | MIC [2, 4] | MIC [2, 5] | also measured
1 | CO/N=C(\C(=O)N[C@@H]1C(=O)N2C(C(=O)O)=C(CSc3nc(=O)c(=O)[nH]n3C)CS[C@H]12)c1csc(N)n1 [ceftriaxone] | Thirty-six | 64% | 0.03 µg/mL | 1.0% | 1 | 42.0% | 19 | 58.0% | 8 | 0.06 µg/mL (≈ 0.108 µM) | 64.0% | 3 | killing at 6 and 24 hr that approached 3-logs | bactericidal activity | 0.06 µg/mL (≈ 0.108 µM) | 0.03 µg/mL (≈ 0.0541 µM) | 4 µg/mL (≈ 7.21 µM) | Cumulative percentage of isolates inhibited at MIC (Escherichia coli; 0.008 μg/mL): 2.0%; Number of test isolates at MIC (Escherichia coli; 0.008 μg/mL): 1; Cumulative percentage of isolates inhibited at MIC (Escherichia coli; 8 μg/mL): 68.0%; Number of test isolates at MIC (Escherichia coli; 8 μg/mL): 2; Cumulative percentage of isolates inhibited at MIC (Escherichia coli; 16 μg/mL): 72.0%; Number of test isolates at MIC (Escherichia coli; 16 μg/mL): 2; Cumulative percentage of isolates inhibited at MIC (Escherichia coli; 64 μg/mL): 76.0%; Number of test isolates at MIC (Escherichia coli; 64 μg/mL): 2; Cumulative percentage of isolates inhibited at MIC (Escherichia coli; >128 μg/mL): 100.0%; Number of test isolates at MIC (Escherichia coli; >128 μg/mL): 12; MIC90 (Escherichia coli; Escherichia coli): > 128 µg/mL; % R (Escherichia coli; listed as CTR): 36%; MIC90 (Escherichia coli; listed as CTR): >128 µg/mL; MIC ([2]; read-out: MIC value (agar dilution), E. coli MMX 1312): 4 µg/mL (≈ 7.21 µM); MIC ([2]; read-out: MIC values (agar dilution), E. coli excluding E. coli MMX 1312 (stated jointly with Streptococcus spp.)): 0.03 to 0.06 µg/mL (≈ 0.0541 to 0.108 µM)
2 | C[C@@H](O)[C@H]1C(=O)N2C(C(=O)O)=C(S[C@@H]3CN[C@H](C(=O)N(C)C)C3)[C@H](C)[C@H]12 [meropenem] | 2% | Ninety-eight | 0.015 µg/mL | 78.0% | 21 | 90.0% | 6 | 92.0% | 1 | 0.015 µg/mL (≈ 0.0391 µM) | 98.0% | 3 | regrowth was observed at 24 hr for all concentrations | bactericidal activity | 0.015 µg/mL (≈ 0.0391 µM) | 0.015 µg/mL (≈ 0.0391 µM) | 0.015 µg/mL (≈ 0.0391 µM) | relative activity among drugs tested (Escherichia coli): most active drug tested; also recorded: most active agent; Cumulative percentage of isolates inhibited at MIC (Escherichia coli; >8 μg/mL): 100.0%; Number of test isolates at MIC (Escherichia coli; >8 μg/mL): 1; MIC90 (Escherichia coli; Escherichia coli, read-out: MIC90): 0.03 µg/mL (≈ 0.0782 µM); % R (Escherichia coli; listed as MEM): 2%; % S (Escherichia coli; listed as MEM): 98%; Cumulative percentage of isolates inhibited at MIC (Escherichia coli; ≤0.008 μg/mL): 36.0%; Number of test isolates at MIC (Escherichia coli; ≤0.008 μg/mL): 18; CFU decrease (E. coli MMX 1312; 8×MIC, 6 hr timepoint): 3 log10 CFU; MIC ([2]; read-out: MIC values (agar dilution), over evaluated E. coli isolates (range stated jointly with other groups)): 0.008 to 0.12 µg/mL (≈ 0.0209 to 0.313 µM)
